{
  "source": "patent US11021471B2",
  "about": "“Antibacterial compounds” (FORGE THERAPEUTICS, INC., priority 2017, dated 2021)",
  "key": {"E. coli": {"test_system": "E. coli", "test": "Bacterial susceptibility testing, MIC by broth microdilution (CLSI)", "assay_type": "cell-based", "settings": "Escherichia coli, cation adjusted Mueller-Hinton Broth, 35° C., 18-24 h", "procedure": "(§1) Minimal inhibitory concentrations (MIC) were determined by the broth microdilution method in accordance with the Clinical and Laboratory Standards Institute (CLSI) guidelines. In brief, organism suspensions were adjusted to a 0.5 McFarland standard to yield a final inoculum between 3×10^5 and 7×10^5 colony-forming units (CFU)/mL. Drug dilutions and inocula were made in sterile, cation adjusted Mueller-Hinton Broth (Beckton Dickinson). An inoculum volume of 100 μL was added to wells containing 100 μL of broth with 2-fold serial dilutions of drug. All inoculated microdilution trays were incubated in ambient air at 35° C. for 18-24 h. Following incubation, the lowest concentration of the drug that prevented visible growth (OD600 nm<0.05) was recorded as the MIC. Performance of the assay was monitored by the use of laboratory quality-control strains and levofloxacin, a compound with a defined MIC spectrum, in accordance with CLSI guidelines."}, "S. aureus": {"test_system": "S. aureus", "test": "Bacterial susceptibility testing, MIC by broth microdilution (CLSI)", "assay_type": "cell-based", "settings": "Staphylococcus aureus, cation adjusted Mueller-Hinton Broth, 35° C., 18-24 h", "procedure": "as §1"}},
  "data": [
    {"smiles": "CS(=O)(=O)C(Cc1ccc(C#Cc2ccc(CN3CCOCC3)cc2)cc1)c1occc(=O)c1O", "note": "(stereo not drawn) [Compound 1, 3-hydroxy-2-(1-(methylsulfonyl)-2-(4-((4-(morpholinomethyl)phenyl)ethynyl)phenyl)ethyl)-4H-pyran-4-one]", "values": [
      {"measurement": "MIC", "setting": "E. coli", "result": "> 32", "unit": "µg/mL"}
    ]},
    {"smiles": "O=C(Nc1ccc(C#CC#Cc2ccccc2)cc1)c1occc(=O)c1O", "note": "[Compound 2, 3-hydroxy-4-oxo-N-(4-(phenylbuta-1,3-diyn-1-yl)phenyl)-4H-pyran-2-carboxamide]", "values": [
      {"measurement": "MIC", "setting": "E. coli", "result": "> 32", "unit": "µg/mL"}
    ]},
    {"smiles": "CS(=O)(=O)NCC(Cc1ccc(-c2ccccc2)cc1)c1occc(=O)c1O", "note": "(stereo not drawn) [Compound 3, N-(3-([1,1′-biphenyl]-4-yl)-2-(3-hydroxy-4-oxo-4H-pyran-2-yl)propyl)methanesulfonamide]", "values": [
      {"measurement": "MIC", "setting": "S. aureus", "result": "> 32", "unit": "µg/mL"},
      {"measurement": "MIC", "setting": "E. coli", "result": "> 32", "unit": "µg/mL"}
    ]},
    {"smiles": "CS(=O)(=O)CC(Cc1ccc(-c2ccccc2)cc1)c1occc(=O)c1O", "note": "(stereo not drawn) [Compound 4, 2-(1-([1,1′-biphenyl]-4-yl)-3-(methylsulfonyl)propan-2-yl)-3-hydroxy-4H-pyran-4-one]", "values": [
      {"measurement": "MIC", "setting": "S. aureus", "result": "> 32", "unit": "µg/mL"},
      {"measurement": "MIC", "setting": "E. coli", "result": "> 32", "unit": "µg/mL"}
    ]},
    {"smiles": "O=c1ccoc(C(CO)Cc2ccc(-c3ccccc3)cc2)c1O", "note": "(stereo not drawn) [Compound 5, 2-(1-([1,1′-biphenyl]-4-yl)-3-hydroxypropan-2-yl)-3-hydroxy-4H-pyran-4-one]", "values": [
      {"measurement": "MIC", "setting": "S. aureus", "result": "> 32", "unit": "µg/mL"},
      {"measurement": "MIC", "setting": "E. coli", "result": "> 32", "unit": "µg/mL"}
    ]},
    {"smiles": "NCC(Cc1ccc(-c2ccccc2)cc1)c1occc(=O)c1O", "note": "(stereo not drawn) [Compound 6, 2-(1-([1,1′-biphenyl]-4-yl)-3-aminopropan-2-yl)-3-hydroxy-4H-pyran-4-one]", "values": [
      {"measurement": "MIC", "setting": "S. aureus", "result": 8, "unit": "µg/mL"},
      {"measurement": "MIC", "setting": "E. coli", "result": 8, "unit": "µg/mL"}
    ]},
    {"smiles": "O=c1ccoc(CN(CCO)c2ccc(-c3ccccc3)cc2)c1O", "note": "[Compound 7, 2-(([1,1′-biphenyl]-4-yl(2-hydroxyethyl)amino)methyl)-3-hydroxy-4H-pyran-4-one]", "values": [
      {"measurement": "MIC", "setting": "S. aureus", "result": "> 32", "unit": "µg/mL"},
      {"measurement": "MIC", "setting": "E. coli", "result": "> 32", "unit": "µg/mL"}
    ]}
  ]
}
